A short description of assay [1]: Intracerebroventricular (ICV) administration on 24-hour food-deprived rats. The format is in vivo, rat. To be noted: for water drunk: comparable to vehicle. The procedure: Animals were prepared with an ICV cannula aimed above the lateral ventricle. For this surgery, animals were placed under general anesthesia using continuous inhalation of isoflurane and secured in a Kopf stereotaxic instrument. Surgery was performed in a dedicated surgery room, using sterile instruments, surgical gloves and aseptic procedures to prevent clinical infections. The surgical site was shaved and disinfected with betadine solution and alcohol. Animals were observed continuously for the level of anesthesia by testing for the animals' responses to tail- or paw-pinch. A cannula made of 23 gauge stainless steel tubing (7 mm long) was lowered to a point 1 mm above the ventricle, using coordinates: A/P−0.6 mm from bregma, M/L+/−2.0 mm from bregma, D/V 3.2 mm below skull surface. The guide was anchored to the skull with three stainless steel screws and dental cement. Coordinates were based on stereotaxic atlas such as Paxinos and Watson sterotaxic atlas (Paxinos, G. and Watson, C, The Rat Brain, New York, Academic Press, 1982). After cannula implantation, a 30-gauge stainless steel dummy stylet was inserted into the cannula. At the conclusion of surgery, a heat source (heat lamp directed towards one half of recovery cage) was used to maintain body temperature while the animals recovered from anesthesia. Animals were allowed at least one week of recovery after surgery before ICV injection of compound was performed.
Animals were food-deprived for 24 hours prior to administration of the compound.
For ICV injection, the dummy stylet was removed from the implanted cannula, and a 30-gauge stainless steel injector cannula containing ARE112 suspension in a 45% cyclodextrin solution was inserted to a depth 1.5 mm beyond the ventral tip of the implanted cannula. The other (noninserted) end of the injector cannula was attached to 60 cm of PE10 tubing containing the compound suspension, which was attached at the free end of tubing to a 25 μl Hamilton syringe. Ten microliters of ARE112 suspension (containing, 0, 25, 50, and 100 nmol) were then delivered via gentle and even mechanical pressure to the plunger of the Hamilton syringe. The volume of injection was verified by marks on the PE 10 tubing previously calibrated with a 10 μl Hamilton syringe. At the conclusion of injection, any fluid observed from the dorsal tip of the implanted cannula upon withdrawal of the injector cannula was noted, and the dummy stylet was inserted into the implanted cannula.

The target in a further assay is T1, GPR6:Gsα-Fusion Protein (Homo sapiens, UniProt P46095).
T1 construct: expressed in transfected cells
As to the kind of experiment: [35S]GTPγS membrane binding assay (Example 4A). The format is biochemical. An outline of the steps: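 Membranes from stable 293 cells expressing the fusion protein were pre-incubated 5-10 min at RT with compounds (10 μM final) in GDP buffer. [35S]GTPγS (0.6 nM as added) was then bound for 60 min at RT and counted after centrifugation. Inverse agonism was scored as reduced receptor-driven GTPγS binding.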
(In general: GTPγS resists hydrolysis and so accumulates on activated G proteins.)

Assay [2] in a line: Long-term (60 days) body weight, daily repeated IP administration, non-food deprived rats. The format is in vivo, rat. To be noted: 13.5 mg/kg IP once a day for 22 days, assessed for 60 days. The procedure:
Long-term effects (60 days) of ARE112 were also examined. Animals (treatment, n=4; control, n=5) were treated once a day intraperitoneally with ARE112 for 22 days and assessed for a period of 60 days. On days 1 to 3, animals treated with dose of 13.5 mg/kg initially lost body weight and between day 4 and day 31, animals gradually gained weight, although still weighing less than vehicle treated animals. […] See, FIG. 11.

Each structure is given as a SMILES string. Like-named read-outs stand apart in the source and are kept apart here.

T1 sequence (P46095 with tags, fused parts or gaps): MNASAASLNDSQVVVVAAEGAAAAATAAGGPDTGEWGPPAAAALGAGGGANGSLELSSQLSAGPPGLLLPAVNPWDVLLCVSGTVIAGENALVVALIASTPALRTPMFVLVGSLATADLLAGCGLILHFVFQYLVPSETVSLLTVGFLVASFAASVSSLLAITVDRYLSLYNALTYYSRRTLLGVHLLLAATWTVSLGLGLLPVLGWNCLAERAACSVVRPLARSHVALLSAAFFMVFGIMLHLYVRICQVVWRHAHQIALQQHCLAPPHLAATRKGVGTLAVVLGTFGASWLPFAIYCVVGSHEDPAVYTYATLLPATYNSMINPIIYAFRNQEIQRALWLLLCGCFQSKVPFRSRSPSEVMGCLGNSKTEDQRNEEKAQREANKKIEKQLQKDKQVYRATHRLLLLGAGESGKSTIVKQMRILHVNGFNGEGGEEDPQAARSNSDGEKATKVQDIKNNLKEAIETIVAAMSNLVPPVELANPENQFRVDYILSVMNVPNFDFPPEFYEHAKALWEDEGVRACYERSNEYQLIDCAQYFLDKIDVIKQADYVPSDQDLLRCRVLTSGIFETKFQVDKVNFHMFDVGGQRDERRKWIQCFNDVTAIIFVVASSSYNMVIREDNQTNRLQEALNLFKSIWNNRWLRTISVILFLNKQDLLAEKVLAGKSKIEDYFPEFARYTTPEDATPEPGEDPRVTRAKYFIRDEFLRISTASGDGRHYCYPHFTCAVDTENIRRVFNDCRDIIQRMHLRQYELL

For the compound `O=C(N=C1SSC2=NCCN21)c1cccs1` [ARE112, N-(5,6-dihydro-3H-imidazo[2,1-c]-1,2,4-dithiazol-3-ylidene)-thiophen-2-carboxamide], the water drunk result in assay [1] (25 nmol ICV) and in assay [1] (50 nmol ICV) was “about 17 grams” throughout. Also, the water consumed result in assay [1] (100 nmol ICV, relative to about 17 grams) is recorded as “less than half that amount”. The compound further showed a weight gained in assay [1] (100 nmol ICV, vehicle about 12 grams) of 5 grams. The compound also came in with a food consumed in assay [1] (after three hours, ICV, vehicle about 2.5 grams) of at most 1.0 grams. For the same compound, in assay [1] (two hours post-administration, all doses (25, 50, 100 nmol ICV)), the “less food consumed than vehicle” value was “about 6 fold”. The IC50 on GPR6:Gsα-Fusion Protein (mean +/- standard deviation (number of assays in brackets), read-out: IC50 Values GTP Assay Example 4A) is 420 nM; on GPR6:Gsα-Fusion Protein (representative IC50 curve, assay protocol of Example 4A, read-out: IC50 value against the GPR6 receptor (FIG. 4)), 150 nM. Also, in assay [2], the “body weight, long-term” value is “long-term decrease in body weight”.

Broadly, the IC50 is the concentration that gives 50% inhibition.

The record behind these values is US6420563B1, “Small molecule modulators of G protein-coupled receptor six” (Arena Pharmaceuticals, Inc., priority 1998, dated 2002).
